Source: US20120149902A1, “PYRROLO[2,3-D]PYRIMIDINE DERIVATIVE” (UBE INDUSTRIES, LTD., priority 2009, published 2012)

Tests used:
[1] = target: T1, purified human recombinant HER2 kinase (Lys676-Val1255, GST fusion) (Homo sapiens, UniProt P04626); assay: HER2 kinase enzyme inhibitory activity (HTRF); format: biochemical; conditions: 200 μM ATP, FLT3 analogous peptide substrate, 60 minutes at room temperature
T1 construct: human recombinant HER2 kinase (Lys676-Val1255, GST fusion); GST
Experimental: The HER2 kinase enzyme inhibitory activity of a compound of the present invention was evaluated by using a purified human recombinant HER2 kinase (Lys676-Val1255, GST fusion) and a synthetic peptide as a substrate, and detecting the phosphorylation level of the substrate by the HTRF method (homogeneous time resolved fluorescence method). Specifically, 25 ng/well of activated HER2, 200 μM of ATP, 200 ng/well of FLT3 analogous peptide (biotin label, peptide sequence is AGGSSDNEYFYVDF), and test compound (final concentration 0.01 nM to 30 μM) were mixed in kinase reaction buffer (60 mM HEPES, 5 mM MgCl2, 5 mM MnCl2, 3 mM Na3VO4, 1.25 mM DTT, pH 7.5) to prepare 50 μL/well of total reaction volume, and the mixture was reacted for 60 minutes at room temperature. Then, the phosphorylation reaction was stopped and HTRF reaction was carried out by adding 25 μL/well of PBS solution comprising the following components and reacting the mixture for 12 to 16 hours at 4° C. The following components were dissolved in PBS (pH 7.0) to prepare the PBS solution composition: 60 mM EDTA (final concentration 20 mM), 1.2 M KF (final concentration […]), 1 mg/mL BSA (final concentration 333 μg/mL), 6 μg/mL anti-PY20-Cryptate (Cisbio international, France, final concentration 2 μg/mL), and 15 μg/mL Streptavidin labeled with XL665 (Cisbio international, France, final concentration 5 μg/mL).

[2] = system: HER2 overexpressed gastric cancer cell line NCI-N87; assay: Cytotoxic activity (in vitro), CellTiter-Glo viable cell count; format: cell-based; conditions: Homo sapiens, NCI-N87, 72 h, NCI-N87, cultured for 72 hours
Experimental: The cytotoxic activity of a compound of the present invention was investigated using a HER2 overexpressed gastric cancer cell line NCI-N87. Specifically, an appropriate amount of cells was seeded into a 96-well plate for cell culture at 50 μL/well, and precultured overnight at 37° C. under 5% —CO2 condition. A solution of a test compound in DMSO with dilution series was diluted with medium, and added to the precultured cells at the volume of 50 μL/well. The mixture was prepared such that the final concentration of DMSO became 0.1%. After the mixture was cultured for 72 hours at 37° C. under 5% —CO2 condition, 100 μL/well of CellTiter-Glo solution (Promega, Madison, Wis.) was added, the luminescence was measured using a luminometer (Wallac ARVO™ SX) 10 minutes later, and the viable cell count was determined.

[3] = system: HER2 overexpressed gastric cancer cell line; assay: In vivo anti-tumor effect, subcutaneous tumor transplant in nude mouse; conditions: oral, daily except Saturday and Sunday, 2 to 4 weeks, read-out: Tumor growth inhibition ratio (%); for inhibition in vivo at 60 mg/kg: dosage 60 mg/kg; for inhibition in vivo at 30 mg/kg: dosage 30 mg/kg; for inhibition in vivo at 100 mg/kg: dosage 100 mg/kg
Experimental: The anti-tumor effect in vivo of a compound of the present invention was evaluated using a HER2 overexpressed gastric cancer cell line. Specifically, a tumor fragment with about 5 mm square was transplanted subcutaneously using a transplantation needle, or an appropriate number of tumor cells was suspended in saline (Otsuka Pharmaceutical Co., Ltd.) and transplanted under the skin of the right axillary region of a nude mouse using a glass syringe equipped with a two-stage needle for subcutaneous injection. After the confirmation of the engraftment of the transplanted tumors, the mice were classified into groups depending on the tumor volume. The test compounds: the Example Compounds 1-1, 1-2, 1-5, 1-8, 1-13, 1-14, 1-15, 1-19, 1-20, 1-22, 2-1, 2-3, and 3-2 were each dissolved or suspended in an appropriate medium and orally administered forcedly to a mouse. The period of administration was varied from 2 weeks to 4 weeks depending on tumor, and the administration was carried out daily with drug holidays of Saturday and Sunday. The major axis (mm) and the minor axis (mm) of a tumor were measured sequentially using an electronic digital vernier caliper, and evaluated by the tumor growth inhibition ratio (GI %) on the judgement day (in principle, the next day of the final administration) using the following calculating formula.
A: Average tumor volume on the judgement day of the group to which a compound was administered (*)
B: Average tumor volume on the judgement day of the untreated control group (*)
*: The tumor volume is calculated by ½×[major axis of tumor]×[minor axis of tumor]^2.

T1 sequence (P04626 676-1255): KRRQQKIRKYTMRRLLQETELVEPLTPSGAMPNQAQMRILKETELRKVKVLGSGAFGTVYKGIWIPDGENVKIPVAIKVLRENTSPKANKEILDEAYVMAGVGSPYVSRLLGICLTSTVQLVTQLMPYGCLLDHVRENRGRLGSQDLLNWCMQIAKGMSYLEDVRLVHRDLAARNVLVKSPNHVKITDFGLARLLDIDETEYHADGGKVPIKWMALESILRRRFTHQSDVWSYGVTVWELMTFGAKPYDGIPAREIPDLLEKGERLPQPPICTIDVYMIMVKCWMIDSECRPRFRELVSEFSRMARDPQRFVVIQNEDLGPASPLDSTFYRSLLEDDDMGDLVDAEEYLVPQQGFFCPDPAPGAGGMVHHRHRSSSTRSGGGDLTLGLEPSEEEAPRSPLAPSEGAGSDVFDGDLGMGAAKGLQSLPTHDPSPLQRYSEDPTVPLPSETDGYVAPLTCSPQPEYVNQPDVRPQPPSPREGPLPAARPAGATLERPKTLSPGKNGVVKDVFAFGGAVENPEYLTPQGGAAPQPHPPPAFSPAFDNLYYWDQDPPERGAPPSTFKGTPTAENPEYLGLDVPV

## CNC1CCN(Cc2c[nH]c3ncnc(Nc4cccc(Br)c4)c23)CC1 [Example 1-18]
[1]
  IC50: < 0.01 µM
[2]
  GI50: < 0.02 µM

## CC1(N)CCN(Cc2c[nH]c3ncnc(Nc4ccc5occc5c4)c23)CC1 [Example 1-15, [5-(4-Amino-4-methylpiperidin-1-ylmethyl)-7H-pyrrolo[2,3-d]pyrimidin-4-yl](benzofuran-5-yl)amine]
[1]
  IC50: 0.01 to 0.05 µM
[2]
  GI50: 0.02 to 0.05 µM
[3]
  inhibition in vivo at 60 mg/kg: 90%

## C#CCNC1CCN(Cc2c[nH]c3ncnc(Nc4cccc(C#C)c4)c23)CC1 [Example 3-2, (3-Ethynylphenyl) [5-(4-prop-2-ynylaminopiperidin-1-ylmethyl)-7H-pyrrolo[2,3-d]pyrimidin-4-yl]amine]
[1]
  IC50: < 0.01 µM
[2]
  GI50: < 0.02 µM
[3]
  inhibition in vivo at 60 mg/kg: 91%

## C[C@@H]1CN(Cc2c[nH]c3ncnc(Nc4ccc(Cl)cc4)c23)CC[C@H]1N (relative stereo) [Example 1-21, trans-[5-(4-Amino-3-methylpiperidin-1-ylmethyl)-7H-pyrrolo[2,3-d]pyrimidin-4-yl](4-chlorophenyl)amine]
[1]
  IC50: 0.05 to 0.1 µM
[2]
  GI50: 0.02 to 0.05 µM

## NC1CCN(Cc2c[nH]c3ncnc(Nc4ccc5[nH]ncc5c4)c23)CC1 [Example 1-9, [5-(4-Aminopiperidin-1-ylmethyl)-7H-pyrrolo[2,3-d]pyrimidin-4-yl](1H-indazol-5-yl)amine]
[1]
  IC50: 0.01 to 0.05 µM
[2]
  GI50: 0.05 to 0.5 µM

## COc1cccc(Nc2ncnc3[nH]cc(CN4CCC(C)(N)CC4)c23)c1 [Example 1-13, [5-(4-Amino-4-methylpiperidin-1-ylmethyl)-7H-pyrrolo[2,3-d]pyrimidin-4-yl](3-methoxyphenyl)amine]
[1]
  IC50: < 0.01 µM
[3]
  inhibition in vivo at 30 mg/kg: 72%

## CC1CN(Cc2c[nH]c3ncnc(Nc4ccc(Cl)cc4)c23)CCC1N (single isomer, unassigned; enantiomer 1) [Example 1-22, trans-[5-(4-Amino-3-methylpiperidin-1-ylmethyl)-7H-pyrrolo[2,3-d]pyrimidin-4-yl](4-chlorophenyl)amine [Enantiomer 1]]
[1]
  IC50: 0.05 to 0.1 µM
[3]
  inhibition in vivo at 60 mg/kg: 88%

## Cc1ccc(Nc2ncnc3[nH]cc(CN4CCC(N)CC4)c23)cc1Br [Example 1-6, [5-(4-Aminopiperidin-1-ylmethyl)-7H-pyrrolo[2,3-d]pyrimidin-4-yl](3-bromo-4-methylphenyl)amine]
[1]
  IC50: < 0.01 µM
[2]
  GI50: 0.02 to 0.05 µM

## C#Cc1cccc(Nc2ncnc3[nH]cc(CN4CCC(N)CC4)c23)c1 [Example 1-5, [5-(4-Aminopiperidin-1-ylmethyl)-7H-pyrrolo[2,3-d]pyrimidin-4-yl](3-ethynylphenyl)amine]
[3]
  inhibition in vivo at 30 mg/kg: 90%

## C#Cc1cccc(Nc2ncnc3[nH]cc(CN4CCC(NC)CC4)c23)c1 [Example 3-1, (3-Ethynylphenyl)[5-(4-methylaminopiperidin-1-ylmethyl)-7H-pyrrolo[2,3-d]pyrimidin-4-yl]amine]
[1]
  IC50: < 0.01 µM
[2]
  GI50: < 0.02 µM

## CC1(N)CCN(Cc2c[nH]c3ncnc(Nc4cccc(Br)c4)c23)CC1 [Example 1-12, [5-(4-Amino-4-methylpiperidin-1-ylmethyl)-7H-pyrrolo[2,3-d]pyrimidin-4-yl](3-bromophenyl)amine]
[1]
  IC50: < 0.01 µM

## NC1CCN(Cc2c[nH]c3ncnc(Nc4ccc(Cl)c(Cl)c4)c23)CC1 [Example 1-10, [5-(4-Aminopiperidin-1-ylmethyl)-7H-pyrrolo[2,3-d]pyrimidin-4-yl](3,4-dichlorophenyl)amine]
[1]
  IC50: < 0.01 µM
[2]
  GI50: 0.02 to 0.05 µM

## C#Cc1cccc(Nc2ncnc3[nH]cc(CN4CCC(C)(N)CC4)c23)c1 [Example 1-14, [5-(4-Amino-4-methylpiperidin-1-ylmethyl)-7H-pyrrolo[2,3-d]pyrimidin-4-yl](3-ethynylphenyl)amine]
[1]
  IC50: 0.01 to 0.05 µM
[3]; dosage 10 mg/kg
  inhibition in vivo at 10 mg/kg: 75%

## NC1CCN(Cc2c[nH]c3ncnc(Nc4cc(F)c(F)c(F)c4)c23)CC1 [Example 1-7, [5-(4-Aminopiperidin-1-ylmethyl)-7H-pyrrolo[2,3-d]pyrimidin-4-yl](3,4,5-trifluorophenyl)amine]
[1]
  IC50: 0.01 to 0.05 µM
[2]
  GI50: < 0.02 µM

## N[C@@H]1CCN(Cc2c[nH]c3ncnc(Nc4ccc5occc5c4)c23)C[C@H]1O (relative stereo) [Example 2-2, trans-4-Amino-1-[4-(benzofuran-5-ylamino)-7H-pyrrolo[2,3-d]pyrimidin-5-ylmethyl]piperidin-3-ol]
[2]
  GI50: 0.02 to 0.05 µM

## COCC1(N)CCN(Cc2c[nH]c3ncnc(Nc4cccc(Br)c4)c23)CC1 [Example 1-16, [5-(4-Amino-4-methoxymethylpiperidin-1-ylmethyl)-7H-pyrrolo[2,3-d]pyrimidin-4-yl](3-bromophenyl)amine]
[1]
  IC50: < 0.01 µM
[2]
  GI50: < 0.02 µM

## NC1CCN(Cc2c[nH]c3ncnc(Nc4cc(F)cc(Br)c4)c23)CC1 [Example 1-11, [5-(4-Aminopiperidin-1-ylmethyl)-7H-pyrrolo[2,3-d]pyrimidin-4-yl](3-bromo-5-fluorophenyl)amine]
[1]
  IC50: 0.01 to 0.05 µM
[2]
  GI50: 0.02 to 0.05 µM

## NC1CCN(Cc2c[nH]c3ncnc(Nc4ccc5occc5c4)c23)CC1 [Example 1-1, [5-(4-Aminopiperidin-1-ylmethyl)-7H-pyrrolo[2,3-d]pyrimidin-4-yl]benzofuran-5-ylamine]
[2]
  GI50: 0.02 to 0.05 µM
[3]
  inhibition in vivo at 60 mg/kg: 84%

## NC1CCN(Cc2c[nH]c3ncnc(Nc4ccc(F)c(Cl)c4)c23)CC1 [Example 1-2, [5-(4-Aminopiperidin-1-ylmethyl)-7H-pyrrolo[2,3-d]pyrimidin-4-yl](3-chloro-4-fluorophenyl)amine]
[2]
  GI50: 0.02 to 0.05 µM
[3]
  inhibition in vivo at 30 mg/kg: 75%

## COCC1(N)CCN(Cc2c[nH]c3ncnc(Nc4ccc5occc5c4)c23)CC1 [Example 1-17, [5-(4-Amino-4-methoxymethylpiperidin-1-ylmethyl)-7H-pyrrolo[2,3-d]pyrimidin-4-yl](benzofuran-5-yl)amine]
[1]
  IC50: 0.05 to 0.1 µM
[2]
  GI50: 0.02 to 0.05 µM

## N[C@@H]1CCN(Cc2c[nH]c3ncnc(Nc4ccc(F)c(Cl)c4)c23)C[C@H]1O (relative stereo) [Example 2-1, trans-4-Amino-1-[4-(3-chloro-4-fluorophenylamino)-7H-pyrrolo[2,3-d]pyrimidin-5-ylmethyl]piperidin-3-ol]
[2]
  GI50: 0.02 to 0.05 µM
[3]
  inhibition in vivo at 100 mg/kg: 52%

## CC1CN(Cc2c[nH]c3ncnc(Nc4ccc(Cl)cc4)c23)CCC1N (single isomer, unassigned; enantiomer 2) [Example 1-23, trans-[5-(4-Amino-3-methylpiperidin-1-ylmethyl)-7H-pyrrolo[2,3-d]pyrimidin-4-yl](4-chlorophenyl)amine [Enantiomer 2]]
[1]
  IC50: ≥ 0.1 µM

## N[C@@H]1CCN(Cc2c[nH]c3ncnc(Nc4cccc(Br)c4)c23)C[C@H]1O (relative stereo) [Example 2-3, trans-4-Amino-1-[4-(3-bromophenylamino)-7H-pyrrolo[2,3-d]pyrimidin-5-ylmethyl]piperidin-3-ol]
[2]
  GI50: < 0.02 µM
[3]
  inhibition in vivo at 100 mg/kg: 76%
